From patent publication US8426387B2, “Treatments for cancer” (priority 2006, dated 2013)

B1: rMaspin(i): Purified recombinant maspin produced in baculovirus-infected Spodoptera frugiperda Sf9 insect cells (protein, UniProt P36952 1-375, looked up)
Serpin B5: MDALQLANSAFAVDLFKQLCEKEPLGNVLFSPICLSTSLSLAQVGAKGDTANEIGQVLHFENVKDVPFGFQTVTSDVNKLSSFYSLKLIKRLYVDKSLNLSTEFISSTKRPYAKELETVDFKDKLEETKGQINNSIKDLTDGHFENILADNSVNDQTKILVVNAAYFVGKWMKKFSESETKECPFRVNKTDTKPVQMMNMEATFCMGNIDSINCKIIELPFQNKHLSMFILLPKDVEDESTGLEKIEKQLNSESLSQWTNPSTMANAKVKLSIPKFKVEKMIDPKACLENLGLKHIFSEDTSDFSGMSETKGVALSNVIHKVCLEITEDGGDSIEVPGARILQHKDELNADHPFIYIIRHNKTRNIIFFGKFCSP
modifications: recombinant, Sf9 baculovirus-expressed
notes: Purified recombinant maspin produced in baculovirus-infected Spodoptera frugiperda Sf9 insect cells

Tests used:
[1] = tested on: estrogen receptor positive cell lines; assay: cells
Procedure: (§1) The relationship between diet and cancer is an active area of investigation. […] Fruits and vegetables are known to be good sources of dietary boron. To explore a possible cellular mechanism for the effect of boron on prostate cancer 1 mM boric acid was added to several cancer cell lines; three human prostate, and for comparison, five human breast cell lines.

[2] = tested on: androgen receptor positive and receptor negative human prostate cancer cell lines; conditions: 1 mM boric acid; RPMI1640 media
Procedure: as §1

[3] = tested on: DU-145 androgen receptor negative human prostate cell line
Procedure: as §1

DU-145 = conditions: 1 mM boric acid
Procedure: as §1

[4] = tested on: a breast cancer cell line; conditions: 1 mM boron
Procedure: as §1

[5] = tested on: estrogen receptor negative human breast cancer cell lines; conditions: 1 mM boric acid; two cell lines; MEM supplemented with 10% FBS and 25 mM HEPES
Procedure: as §1

DU-145 cell line = conditions: 1 mM boron
Procedure: as §1

[6] = target: T1, DU145 cell surface-bound uPA (Homo sapiens, UniProt P00749); conditions: DU145 cells; read-out: Ki value in cell surface-mediated plasminogen activation; cited from earlier work
T1 construct: endogenous in cells; host or cells: DU145 prostate carcinoma cells

Molecule | growth inhibition ([1]; 1 mM boric acid, two estrogen receptor positive cell lines, MEM media or RPMI1640, supplemented) | inhibition at 1000 µM ([1]; Homo sapiens, 216 h, read-out: inhibition in growth) [%] | apoptosis by flow cytometry ([1]; third estrogen receptor positive breast cancer cell line, preliminary results) | growth response [2] | growth ([3]; 1 mM boric acid, supplemented RPMI media) | reversibility of growth inhibition ([3]; boric acid removed on Day 3, cell growth resumed by Day 6) | cell cycle block or apoptosis (DU-145) | apoptosis or necrosis [4] | growth inhibition [5] | apoptosis or necrosis (DU-145 cell line) | Ki [6] [nM]
OB(O)O [boric acid] | failed to exhibit growth inhibition | 20 | may be inducing apoptosis | failed to show a response | completely arrested | reversible | does not block the cell cycle or induce apoptosis | does not induce apoptosis or necrosis | did not show growth inhibition | does not induce apoptosis or necrosis | –
B1 | – | – | – | – | – | – | – | – | – | – | 20
